Data set [1] is described as follows: Comparative in vitro metabolism assay (microsomal incubation). Conditions: for % Drug after 30 min. microsomal incubation: 10 μM compound, 0.2 mg microsomal protein, NADPH; for A: % Compound remaining/% roscovitine remaining: ratio to roscovitine, 30 min microsomal incubation.
Protocol: Calibration curves were prepared at 0, 1, and 10 μM in microsomes pre-incubated for 30 min and these were also treated with methanol containing olomoucine. All samples were then centrifuged and the supernatants analysed by liquid chromatography-mass spectrometry.
The chromatography column was a Supelco LC-ABZ, 50×4.6 mm, 5 μm zwitterionic column (Supelco Inc., Supelco Park, Bellefonte, Pa., USA). Gradient eluants consisted of methanol (A) and 0.1% formic acid in water (B). […] The flow rate was 1 mL/min throughout. […] Eluant from the detector passed, without splitting, into a Thermoquest LCQ ion trap mass spectrometer fitted with an electrospray source operated in positive mode. Mass spectrometer conditions were sheath gas 80, auxiliary gas 20 (both arbitrary units), capillary voltage 4 to 4.5 kV and heated capillary temperature 250 to 280° C. The mass range was 50-750. Scan time was controlled by the ion trap which was set to a maximum ion injection-time of 200 ms or the time required to inject 2×10^8 ions; for each scan the system automatically used whichever time was reached first.
In data set [2] the test system is representative panel of human transformed tumour cell lines. The data set is described as follows: Average anti-proliferative activity in tumour cell line panel. Type of data set: cell-based. Conditions: average over representative panel of human transformed tumour cell lines.
The target of the next data set is T1, ERK2 (Homo sapiens, UniProt P28482).
T1 construct: purchased Upstate Biotechnology
The data set is described as follows: Kinase assay, ERK-2 inhibition. In kind it is biochemical.

The next data set has as its target T2, CDK2/cyclin E (Homo sapiens, UniProt P24941).
T2 construct: His6; made in house; host or cells: Sf9 insect cells (baculovirus)
As to the kind of experiment: Kinase assay, CDK2/cyclin E inhibition. Type of data set: biochemical.

For data set [3], the target named is T3, cyclic AMP-dependent kinase (PKA) catalytic subunit (Homo sapiens, UniProt P17612).
T3 construct: purchased Calbiochem 539487
As to the kind of experiment: Kinase assay, PKA inhibition. Type of data set: biochemical.
Protocol: (§1) Recombinant cyclin DI was expressed in E. coli. Proteins were purified by metal chelate affnity chromatography to greater than 90% homogeneity. […] Reactions were stopped on ice, followed by filtration through p81 filterplates or GF/C filterplates (for CDK4) (Whatman Polyfiltronics, Kent, UK), except for CDK7 where, after stopping reaction on ice, 10 μL of 10 mg/mL avidin was added to each well and further incubated for 10 min followed by filtration as per CDK2 assay. After washing 3 times with 75 mM aq orthophosphoric acid, plates were dried, scintillant added and incorporated radioactivity measured in a scintillation counter (TopCount, Packard Instruments, Pangbourne, Berks, UK). Compounds for kinase assay were made up as 10 mM stocks in DMSO and diluted into 10% DMSO in assay buffer.

The test system of data set [4] is Human tumour cell lines: A549, HT29, Saos-2. The data set is described as follows: 72-h MTT cytotoxicity assay. Type of data set: cell-based. The settings on record: for IC50: read-out: In vitro anti-proliferative activity (72 h MTT IC50), 72 h MTT, human tumour cell lines A549, HT29, Saos-2. As for the experimental part: In short: cells were seeded into 96-well plates according to doubling time and incubated overnight at 37° C. Test compounds were made up in DMSO and a 1/3 dilution series prepared in 100 μL cell media, added to cells (in triplicates) and incubated for 72 ho at 37° C. MTT was made up as a stock of 5 mg/mL in cell media and filter-sterilised. Media was removed from cells followed by a wash with 200 μL PBS. MTT solution was then added at 20 μL per well and incubated in the dark at 37° C. for 4 h. MTT solution was removed and cells again washed with 200 μL PBS. MTT dye was solubilised with 200 μL per well of DMSO with agitation.
In general terms: Tetrazolium dyes change colour on reduction, which living cells bring about.

For the next data set, the target named is T4, CDK4/cyclin D1 (Homo sapiens, UniProt P11802).
T4 construct: His6; made in house; host or cells: CDK4: Sf9 insect cells (baculovirus); cyclin D1: E. coli
As to the kind of experiment: Kinase assay, CDK4/cyclin D1 inhibition. In kind it is biochemical.

The next data set addresses T5, CDK7/cyclin H (Homo sapiens, UniProt P50613).
T5 construct: His6; made in house; host or cells: Sf9 insect cells (baculovirus)
As to the kind of experiment: Kinase assay, CDK7/cyclin H inhibition. In kind it is biochemical.

The target in the next data set is T6, CDK1/cyclin B (Homo sapiens, UniProt P06493).
T6 construct: His6; made in house; host or cells: Sf9 insect cells (baculovirus)
The data set is described as follows: Kinase assay, CDK1/cyclin B inhibition. Type of data set: biochemical.

Data on eleven molecules can be found in patent US7544689B2, “Purine derivatives” (Cyclacel Limited, priority 2002, dated 2009).

Each structure is given as a SMILES string.

A word on the IC50: it is the midpoint of a concentration-inhibition curve.

T5 sequence (P50613 whole entry): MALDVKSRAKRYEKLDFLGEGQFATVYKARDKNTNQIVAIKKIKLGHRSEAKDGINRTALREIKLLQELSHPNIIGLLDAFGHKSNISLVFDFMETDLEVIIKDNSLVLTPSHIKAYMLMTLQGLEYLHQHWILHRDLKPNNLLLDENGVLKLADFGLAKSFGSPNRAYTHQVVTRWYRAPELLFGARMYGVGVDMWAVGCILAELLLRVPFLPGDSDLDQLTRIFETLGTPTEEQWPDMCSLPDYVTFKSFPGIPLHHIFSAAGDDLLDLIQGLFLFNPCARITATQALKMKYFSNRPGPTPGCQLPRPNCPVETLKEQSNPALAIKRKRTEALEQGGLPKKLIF
T5 sequence (P51946 whole entry partner): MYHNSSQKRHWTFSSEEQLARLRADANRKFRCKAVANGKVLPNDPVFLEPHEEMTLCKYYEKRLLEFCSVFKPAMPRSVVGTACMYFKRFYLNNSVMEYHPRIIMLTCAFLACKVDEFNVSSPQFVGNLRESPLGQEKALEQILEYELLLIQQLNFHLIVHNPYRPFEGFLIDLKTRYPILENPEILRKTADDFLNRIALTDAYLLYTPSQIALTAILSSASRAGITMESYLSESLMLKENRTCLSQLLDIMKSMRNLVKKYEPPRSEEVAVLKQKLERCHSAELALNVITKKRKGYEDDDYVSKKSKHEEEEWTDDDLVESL
T1 sequence (P28482 whole entry, species assumed): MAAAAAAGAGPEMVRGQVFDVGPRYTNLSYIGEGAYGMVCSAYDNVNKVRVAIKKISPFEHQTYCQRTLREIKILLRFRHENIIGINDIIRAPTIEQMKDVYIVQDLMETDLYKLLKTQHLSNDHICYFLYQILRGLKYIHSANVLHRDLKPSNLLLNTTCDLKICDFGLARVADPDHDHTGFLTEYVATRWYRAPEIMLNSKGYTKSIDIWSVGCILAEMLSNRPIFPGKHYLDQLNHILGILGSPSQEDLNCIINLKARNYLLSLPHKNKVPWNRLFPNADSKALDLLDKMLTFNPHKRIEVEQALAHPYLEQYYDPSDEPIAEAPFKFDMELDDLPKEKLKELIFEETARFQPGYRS
T6 sequence (P06493 whole entry): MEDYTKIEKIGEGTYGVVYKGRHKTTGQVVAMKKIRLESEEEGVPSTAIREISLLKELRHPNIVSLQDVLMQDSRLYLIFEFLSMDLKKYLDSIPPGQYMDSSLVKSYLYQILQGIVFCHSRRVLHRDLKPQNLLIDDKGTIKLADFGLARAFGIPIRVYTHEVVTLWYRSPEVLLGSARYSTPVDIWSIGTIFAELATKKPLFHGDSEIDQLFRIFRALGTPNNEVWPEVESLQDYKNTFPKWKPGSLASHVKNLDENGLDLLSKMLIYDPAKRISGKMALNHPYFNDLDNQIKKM
T6 sequence (P14635 whole entry partner): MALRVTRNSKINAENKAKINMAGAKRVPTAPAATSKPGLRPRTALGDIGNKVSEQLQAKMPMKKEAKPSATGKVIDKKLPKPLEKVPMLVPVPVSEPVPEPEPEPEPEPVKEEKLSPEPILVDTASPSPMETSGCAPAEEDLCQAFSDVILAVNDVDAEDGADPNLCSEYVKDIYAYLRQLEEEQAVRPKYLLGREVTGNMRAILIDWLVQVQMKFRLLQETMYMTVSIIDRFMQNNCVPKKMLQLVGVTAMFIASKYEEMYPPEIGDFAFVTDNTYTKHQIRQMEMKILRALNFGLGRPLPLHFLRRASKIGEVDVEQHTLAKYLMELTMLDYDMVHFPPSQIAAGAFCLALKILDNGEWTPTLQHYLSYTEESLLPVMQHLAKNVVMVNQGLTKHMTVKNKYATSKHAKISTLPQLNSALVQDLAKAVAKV
T4 sequence (P11802 whole entry): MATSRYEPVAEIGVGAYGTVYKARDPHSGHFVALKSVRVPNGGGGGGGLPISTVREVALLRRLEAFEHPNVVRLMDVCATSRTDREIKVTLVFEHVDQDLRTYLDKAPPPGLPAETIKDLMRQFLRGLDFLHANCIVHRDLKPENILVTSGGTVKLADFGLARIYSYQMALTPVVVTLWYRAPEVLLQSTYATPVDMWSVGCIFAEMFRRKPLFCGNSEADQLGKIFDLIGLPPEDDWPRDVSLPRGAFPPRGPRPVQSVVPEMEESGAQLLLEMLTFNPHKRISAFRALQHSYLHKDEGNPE
T4 sequence (P24385 whole entry partner): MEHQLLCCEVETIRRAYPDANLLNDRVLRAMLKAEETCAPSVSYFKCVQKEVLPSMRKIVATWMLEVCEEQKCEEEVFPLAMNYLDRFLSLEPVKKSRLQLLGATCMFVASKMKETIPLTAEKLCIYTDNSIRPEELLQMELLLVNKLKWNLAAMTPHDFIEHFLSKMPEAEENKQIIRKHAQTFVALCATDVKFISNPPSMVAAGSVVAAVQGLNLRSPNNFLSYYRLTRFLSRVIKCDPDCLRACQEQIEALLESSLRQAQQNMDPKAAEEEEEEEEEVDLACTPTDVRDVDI
Protocol for CDK1/cyclin B: as §1
Protocol for CDK2/cyclin E: as §1
Protocol for CDK4/cyclin D1: as §1
Protocol for CDK7/cyclin H: as §1
Protocol for ERK2: Reactions were stopped on ice, followed by filtration through p81 filterplates or GF/C filterplates (for CDK4) (Whatman Polyfiltronics, Kent, UK), except for CDK7 where, after stopping reaction on ice, 10 μL of 10 mg/mL avidin was added to each well and further incubated for 10 min followed by filtration as per CDK2 assay. After washing 3 times with 75 mM aq orthophosphoric acid, plates were dried, scintillant added and incorporated radioactivity measured in a scintillation counter (TopCount, Packard Instruments, Pangbourne, Berks, UK). Compounds for kinase assay were made up as 10 mM stocks in DMSO and diluted into 10% DMSO in assay buffer.

`CC[C@H](CO)Nc1nc(NCc2ccccc2)c2ncn(C(C)C)c2n1` [Roscovitine, reference compound]: in data set [1], the “% Drug after 30 min. microsomal incubation” value is on record as 33% and the “A: % Compound remaining/% roscovitine remaining” value is recorded as 1.0.

Consider `CC[C@@H](Nc1nc(NCc2ccccc2)c2ncn(C(C)C)c2n1)C(=O)O` [carboxyl derivative, (2R)-2-(6-Benzylamino-9-isopropyl-9H-purin-2-ylamino)-butyric acid], for which, in data set [2], the IC50 was more than 50 µM.

Consider `CC[C@H](Nc1nc(NCc2ccccn2)c2ncn(C(C)C)c2n1)C(O)C(C)C` (mixture of isomers) [(3RS,4S)-4-{9-Isopropyl-6-[(pyridin-2-ylmethyl)-amino]-9H-purin-2-ylamino}-2-methyl-hexan-3-ol], for which the IC50 against ERK2 is more than 200 µM; on CDK2/cyclin E, 3.1 µM; in data set [3], more than 200 µM; in data set [4] it was 26 µM; at CDK4/cyclin D1, 49 µM; against CDK7/cyclin H, 3.3 µM. The IC50 against CDK1/cyclin B is more than 200 µM.

For `CC[C@@H](Nc1nc(NCc2ccccn2)c2ncn(C(C)C)c2n1)C(O)C(C)C` (mixture of isomers) [(3RS,4R)-4-{9-Isopropyl-6-[(pyridin-2-ylmethyl)-amino]-9H-purin-2-ylamino}-2-methyl-hexan-3-ol], the IC50 on ERK2 is more than 200 µM; against CDK2/cyclin E, 3.4 µM; in [3], more than 200 µM; in data set [4], 23 µM; at CDK4/cyclin D1 it was 32 µM; at CDK7/cyclin H it was 3.9 µM. The same molecule returned an IC50 against CDK1/cyclin B of 84 µM.

Regarding `CCC(O)[C@@H](CC)Nc1nc(NCc2ccccn2)c2ncn(C(C)C)c2n1` (mixture of isomers) [(3RS,4R)-4-{9-Isopropyl-6-[(pyridin-2-ylmethyl)-amino]-9H-purin-2-ylamino}-hexan-3-ol], the IC50 against ERK2 was 230 µM; against CDK2/cyclin E, 0.77 µM; in data set [3], more than 200 µM; in [4], 19 µM; at CDK4/cyclin D1 it was 20 µM; at CDK7/cyclin H, 1.2 µM. At CDK1/cyclin B, this molecule displayed an IC50 of 35 µM.

Turning to `CCC(O)[C@H](CC)Nc1nc(NCc2ccccn2)c2ncn(C(C)C)c2n1` (mixture of isomers) [(3RS,4S)-4-{9-Isopropyl-6-[(pyridin-2-ylmethyl)-amino]-9H-purin-2-ylamino}-hexan-3-ol], the IC50 was 80 µM at ERK2; 0.42 µM against CDK2/cyclin E; more than 200 µM in [3]; 27 µM in data set [4]; 24 µM at CDK4/cyclin D1; 2.6 µM at CDK7/cyclin H. Moreover, the IC50 on CDK1/cyclin B stood at 40 µM.

As to `CC[C@H](Nc1nc(NCc2ccccn2)c2ncn(C(C)C)c2n1)[C@@H](C)O` [(2R3S)-3-{9-Isopropyl-6-[(pyridin-2-ylmethyl)-amino]-9H-purin-2-ylamino}-pentan-2-ol], the IC50 is 77 µM at ERK2; 0.05 µM against CDK2/cyclin E; more than 200 µM in data set [3]; 9.8 µM in [4]; 18 µM against CDK4/cyclin D1; 2.6 µM against CDK7/cyclin H. This molecule came in with an IC50 on CDK1/cyclin B of 8.9 µM. Moreover, the “A × B” value on CDK2/cyclin E (comparative in vitro efficacy: metabolism ratio × CDK2 ratio) is 1.9. For the same molecule, on CDK2/cyclin E (ratio to roscovitine), the “B: IC50 CDK2 roscovitine/IC50 CDK2 compound” value is reported as 1.9. Further, in data set [1], the “% Drug after 30 min. microsomal incubation” value stood at 33%. Moreover, the “A: % Compound remaining/% roscovitine remaining” value in data set [1] stood at 1.0. Further, in [4] (ratio to roscovitine), the “C: IC50 cytotox. roscovitine/IC50 cytotox. compound” value is listed as 1.2.

For the molecule `CC[C@@H](Nc1nc(NCc2ccccn2)c2ncn(C(C)C)c2n1)C(C)(C)O` [(3R)-3-{9-Isopropyl-6-[(pyridin-2-ylmethyl)-amino]-9H-purin-2-ylamino}-2-methyl-pentan-2-ol], the IC50 was more than 200 µM against ERK2; 0.48 µM against CDK2/cyclin E; more than 200 µM in data set [3]; 35 µM in data set [4]; 18 µM at CDK4/cyclin D1; 4.2 µM against CDK7/cyclin H. In addition, the IC50 on CDK1/cyclin B worked out at 44 µM.

In the case of `CC[C@@H](Nc1nc(NCc2ccccn2)c2ncn(C(C)C)c2n1)C(O)C(C)(C)C` (mixture of isomers) [(3RS,4R)-4-{9-Isopropyl-6-[(pyridin-2-ylmethyl)-amino]-9H-purin-2-ylamino}-2,2-dimethyl-hexan-3-ol], the IC50 at ERK2 was more than 200 µM; against CDK2/cyclin E, 2.8 µM; in data set [3], more than 200 µM; in [4] it was 38 µM; against CDK4/cyclin D1, 38 µM; against CDK7/cyclin H, 2.4 µM. Besides, the IC50 on CDK1/cyclin B is more than 200 µM.

Regarding `CC[C@H](Nc1nc(NCc2ccccn2)c2ncn(C(C)C)c2n1)C(O)C(C)(C)C` (mixture of isomers) [(3RS,4S)-4-{9-Isopropyl-6-[(pyridin-2-ylmethyl)-amino]-9H-purin-2-ylamino}-2,2-dimethyl-hexan-3-ol], the IC50 against ERK2 was 137 µM; at CDK2/cyclin E, 1 µM; in data set [3], more than 200 µM; in data set [4], 33 µM; on CDK4/cyclin D1, 22 µM; against CDK7/cyclin H, 5.8 µM. The IC50 against CDK1/cyclin B is more than 200 µM.

For `CC[C@@H](Nc1nc(NCc2ccccn2)c2ncn(C(C)C)c2n1)[C@H](C)O` [(2S3R)-3-{9-Isopropyl-6-[(pyridin-2-ylmethyl)-amino]-9H-purin-2-ylamino}-pentan-2-ol], the 50% inhibitory concentration (IC50) on ERK2 is 73 µM; at CDK2/cyclin E, 0.52 µM; in data set [3], more than 200 µM; in data set [4], 12 µM; against CDK4/cyclin D1, 48 µM; against CDK7/cyclin H it was 0.55 µM. Also, the IC50 against CDK1/cyclin B is 39 µM.
